In test [1] the target is human recombinant beta-secretase (hBACE1) (Homo sapiens (Human), UniProt P56817). Kind of test: FRET assay, inhibition of human recombinant beta-secretase. Type of test: biochemical. The settings on record: 50 μM inhibitor concentration; read-out: hBACE-1 % inh. In outline: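 hBACE1 (added as 1 U/ml solution) cleaves a rhodamine/quencher peptide based on the Swedish APP mutation in 50 mM sodium acetate pH 4.5, 60 min at 25 °C, stopped with 2.5 M sodium acetate; fluorescence at 576 nm. % inhibition from 0–60 min signal change versus enzyme-only blanks; screened at 50 μM in triplicate; IC50 by non-linear regression.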

Test [2] deals with C57BL/6J mice. The experiment in a line: Morris water maze test (scopolamine). Type of test: in vivo, Mus musculus. Here is the method:
The research was conducted at the Department of Pharmacodynamics, Faculty of Pharmacy, Jagiellonian University in Krakow. All procedures were approved by the 1st and 2nd Local Ethics Committee for Animal Experiments in Krakow (consent no. 53/2017 and 250/2019) and were performed in accordance with the applicable European Union regulation (86/609/EEC). Males of two different strains of domestic mice (Mus musculus) were used in the study: Albino Swiss CD-1 (body weight approx. 20-24 g, age approx. 6 weeks) and C57BL/6J mice (body weight approx. 18-22 g, age approx. 6 weeks). […]
At this stage of the study, each mouse underwent four trials every day (trial interval approx. 1 hour). […] During the acquisition (learning) phase, the time and distance traveled to find the platform were measured. Additionally, the trajectories of movement in the pool were analyzed. […] The latency of finding the place where the platform was previously (during the acquisition/learning phase) was measured, as well as the number of crossings through the zone, where the platform was in the acquisition phase. In addition, the total residence time and distance traveled in the relevant quadrant of the pool (in the NW zone where the platform was at the time of acquisition) were measured, as well as the speed and total distance traveled by the animal during the 60 s of the test. […]

The subject of test [3] is C57BL/6J mice. Kind of test: Barnes maze test (scopolamine). It is filed as in vivo, Mus musculus. As for the experimental part: The research was conducted at the Department of Pharmacodynamics, Faculty of Pharmacy, Jagiellonian University in Krakow. All procedures were approved by the 1st and 2nd Local Ethics Committee for Animal Experiments in Krakow (consent no. 53/2017 and 250/2019) and were performed in accordance with the applicable European Union regulation (86/609/EEC). Males of two different strains of domestic mice (Mus musculus) were used in the study: Albino Swiss CD-1 (body weight approx. 20-24 g, age approx. 6 weeks) and C57BL/6J mice (body weight approx. 18-22 g, age approx. 6 weeks). The CD-1 strain was used for the passive avoidance, spontaneous mobility and rotating rod tests, while the C57BL/6J mice were used for the Morris water maze and the Barnes' maze. The animals were kept in standard, appropriately sized cages, divided into groups with a maximum of 10 animals. The animals in the study groups in the learning phase were intraperitoneally administered the test compound 1 h before the start of the experiments (doses in the preliminary test, i.e. in the passive avoidance test: 10, 30 and 60 mg/kg), and 30 minutes later, 1 mg/kg of scopolamine subcutaneously. Two control groups were used in the tests to assess the procognitive activity of JT-3—one of them received saline and the other saline and scopolamine.
The test is used to study spatial (hippocampal-dependent) memory. […] Barnes' maze has 18 escape holes (escape points) evenly spaced on the outer edges of the circular platform, and only one of them leads to so-called escape box, where the mouse can hide. For the first four days (acquisition phase), the mouse was placed in the center of the maze in the starting chamber, the light was turned on, then the chamber was raised and time was started. The number of errors was also counted, i.e. how many holes the mouse approached before approaching the right hole for the first time, and the total number of errors until it entered the escape box. […] Each mouse was subjected to four trials a day.
On the fifth day, which is the recall phase (without administration of compounds), the box was removed from the escape hole and the total errors, the number of errors made up to the first approach of the mouse to the hole where the escape box was previously found and the latency to the first approach of the mouse were counted for 90 seconds to that hole were counted. The number of approaches to this hole and the time the mouse spent on it were also counted. On the twelfth day—“proper test” (without administration of compounds), the effect of the compound on long-term memory was assessed. The experiment was as in the recall phase; the same parameters were measured. Between the fifth and twelfth days, the animals were kept in home cages.

SMILES strings stand for the structures.

human recombinant beta-secretase (hBACE1), sequence (P56817 46-501): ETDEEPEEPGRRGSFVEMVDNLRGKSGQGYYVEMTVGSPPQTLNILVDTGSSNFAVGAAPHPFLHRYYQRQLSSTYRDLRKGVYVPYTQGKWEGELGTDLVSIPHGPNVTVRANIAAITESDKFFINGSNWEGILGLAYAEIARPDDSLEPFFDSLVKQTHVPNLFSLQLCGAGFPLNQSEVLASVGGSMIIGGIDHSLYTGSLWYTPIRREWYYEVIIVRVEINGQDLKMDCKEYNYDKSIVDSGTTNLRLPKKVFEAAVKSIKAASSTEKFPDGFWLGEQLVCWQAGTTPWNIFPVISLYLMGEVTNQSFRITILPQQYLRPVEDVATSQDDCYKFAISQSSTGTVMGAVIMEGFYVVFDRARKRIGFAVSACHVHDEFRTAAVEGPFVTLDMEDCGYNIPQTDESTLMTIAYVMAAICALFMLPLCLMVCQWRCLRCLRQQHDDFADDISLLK

`O[C@H](CNCC1CC1)[C@H](Cc1ccccc1)NC1c2ccccc2-c2ccccc21` [JT-3, (2R,3S)-3-((9H-fluoren-9-yl)amino)-1-((cyclopropylmethyl)amino)-4-phenylbutan-2-ol]: in test [1], the inhibition at 50 µM stood at 61.3%. Besides, in the test with C57BL/6J mice [2] (10 mg/kg i.p., fifth day of the test, p<0.01), the “latency to find the hidden platform, acquisition phase vs scopolamine control” value was “statistically significant difference”. Further, in the test with C57BL/6J mice [2] (seventh day, 10 mg/kg i.p. on days 1-6), the “recall phase parameters (time, crossings, distance, entries in NW zone)” value was “did not affect any of the parameters studied”. In addition, the “number of errors made before finding the escape site, acquisition phase” value with C57BL/6J mice [3] (10 mg/kg i.p., days 1-4) is on record as “no statistically significant differences”. For the same compound, the “latency to find the escape site, acquisition phase vs scopolamine control” value in the test on C57BL/6J mice [3] (10 mg/kg i.p., fourth day of the test, p<0.05) is “Statistically significant differences”. The recall phase activity with C57BL/6J mice [3] (fifth day, 10 mg/kg i.p. on days 1-4) is “not active”. Further, the “number of errors made to find the escape zone vs scopolamine control” value with C57BL/6J mice [3] (twelfth day, 10 mg/kg i.p. on days 1-4, p<0.0001) is “the reduction in errors was also statistically significant”. Also, the “latency to find the escape zone vs scopolamine control” value in the test with C57BL/6J mice [3] (twelfth day, 10 mg/kg i.p. on days 1-4, p<0.05) was “the reduction in latency was also statistically significant”.

The record behind these values is patent publication US12492163B2, “9H-fluorene derivatives or their pharmaceutically acceptable salts” (priority 2020, dated 2025).
